Values of other authors, collected in PMC2234480 (The Journal of General Physiology, 2003).

System: CLC-0
Conditions: ref Pusch et al., 2001

- affinity for closed channels (model from macroscopic and single-channel analysis): submillimolar affinity
SMILES: CCC(Oc1ccc(Cl)cc1)C(=O)O (centres unmarked) [CPB, p-chlorophenoxy-butyric acid]
- relief of block at positive voltages (5 mM CPB, V > 40 mV): complete unblock
